We go through 2 compounds from paper PMC10975012, “The Active Glucuronide Metabolite of the Brain Protectant IMM-H004 with Poor Blood–Brain Barrier Permeability Demonstrates a High Partition in the Rat Brain via Multiple Mechanisms” (Pharmaceutics, 2024).

A word on the Km: it is the concentration of substrate that gives half-maximal velocity.

The nature of series [1]: In vivo metabolism of IMM-H004 in rat brain after intracerebroventricular injection. To be noted: for detection in brain regions: 6–60 min after icv injection of IMM-H004 3.8 μg/kg. The procedure:
The metabolism of IMM-H004 in the brain was investigated through the intracerebroventricular (icv) injection of IMM-H004 in rats, and the drug concentration in each brain region was analyzed. The rats were fixed on a benchmark stereotactic instrument (Leica Biosystems, Deer Park, IL, USA) under isoflurane anesthesia. Using a microinjector connected to a syringe pump, a 5 μL solution of IMM-H004 was dissolved in artificial cerebrospinal fluid (ACSF) and injected (3.8 μg/kg) into the lateral ventricle. The injection coordinates were as follows: medial/lateral = 1.5 mm; anterior/posterior = −0.8 mm; dorsal/ventral = −4 mm. Animals were sacrificed at 6, 15, 30, 45, and 60 min after drug administration. The brains were collected and dissected on ice into the following regions: the cerebellum, brainstem, hypothalamus, hippocampus, midbrain, striatum, and cortex. The subsequent procedure for processing tissue samples was the same as the procedure described in Section 2.3.1.

Series [2] is described as follows: Uptake kinetics in hCMEC/D3 cells. The format is cell-based, human. To be noted: human, hCMEC/D3 cells, 2–400 μmol/L, 10 min. The procedure:
(§1) Uptake assays into hCMEC/D3 cells were conducted in 24-well plates. All incubations were carried out at 37 °C in triplicate unless otherwise noted. In time-dependent uptake studies, hCMEC/D3 cells were incubated with IMM-H004 (10 µmol/L) and IMM-H004G (50 µmol/L) dissolved in HBSS under gentle shaking for up to 30 min. To investigate the impact of incubation temperature on the uptake of IMM-H004 and IMM-H004G by hCMEC/D3 cells, incubation was performed at 4 or 37 °C for 10 min. To determine the kinetic parameters, the cells were incubated with IMM-H004 and IMM-H004G (2–400 µmol/L) for 10 min. The uptake data were fitted to the following equation using nonlinear least-square regression analysis in GraphPad Prism 9 (GraphPad, San Diego, CA, USA):(1) V=Vmax×S/Km+S+Kns×S where V is the uptake velocity (nmol/mg protein/min), and S is the initial concentration (μmol/L). Vmax, Km, and Kns represent the maximum uptake velocity (nmol/mg protein/min), the Michaelis–Menten constant (μmol/L), and nonsaturable uptake clearance (μL/mg protein/min), respectively. The saturable uptake of both IMM-H004 and IMM-H004G was plotted with the Eadie–Hofstee method by subtracting passive uptake from the total uptake.

In another series the test system is hCMEC/D3 cells. Nature of the series: Uptake kinetics in hCMEC/D3 cells. The format is cell-based, human. The conditions noted are these: for reduction of uptake at 4 °C compared to 37 °C: 10 μmol/L; for reduction of uptake at 4 °C compared to 37 °C / Kns, passive diffusion rate / Vmax/Km ratio, transporter-mediated uptake: 10 min; for Kns, passive diffusion rate / Vmax/Km ratio, transporter-mediated uptake: 2–400 μmol/L. The procedure:
as §1

The test system of series [3] is pyrilamine-sensitive H^+/OC antiporter. Kind of series: Identification of transporters using inhibitors in hCMEC/D3 cells: H+/OC antiporter. The format is cell-based, human. The conditions noted are these: substrate 10 μmol/L; for reduction of uptake by quinidine: quinidine 100 μmol/L; for reduction of uptake by verapamil: verapamil 100 μmol/L. The procedure: (§2) The toxicity of all compounds, including inhibitors and substrates, toward hCMEC/D3 cells, was assessed using the 3-(4,5-Dimethylthiazol-2-yl)-2,5-diphenyltetrazolium bromide (MTT) reduction assay as described previously. To assess the effects of pyrilamine-sensitive proton-coupled organic cation (H^+/OC) antiporter, organic anion transporter (OAT), organic anion-transporting polypeptides (OATPs), organic cation transporter (OCT), and novel organic cation–carnitine transporter (OCTN) inhibitors on the uptake process, IMM-H004 or IMM-H004G (10 µmol/L) combined with the inhibitors were added to the medium after preincubating the cells with the inhibitors for 30 min. For evaluating the impact of the multidrug and toxin extrusion transporter (MATE), P-glycoprotein (P-gp), multidrug resistance protein (MRP), and breast cancer resistance protein (BCRP) on the uptake, IMM-H004 or IMM-H004G (10 µmol/L) was preincubated with the cells for 2 h before the addition of the inhibitors. After removing the supernatant, the cells were washed twice with prewarmed HBSS and incubated with fresh HBSS for 20 min. At the end of incubation, the supernatants were collected. The cells were washed with cold HBSS and lysed using RIPA buffer. The protein content of the lysed cells was determined using a bicinchoninic acid (BCA) assay kit (Beyotime Inc., Shanghai, China). The results were expressed as a percentage of the vehicle control.

The test system of series [4] is OAT, OCT, OCTN, BCRP, and MRP. Kind of series: Identification of transporters using inhibitors in hCMEC/D3 cells: other transporters. The format is cell-based, human. The conditions noted are these: substrate 10 μmol/L. The procedure:
as §2, with “The cells were washed with cold HBSS and lysed using RIPA buffer.” left out

The next series has as its system SH-SY5Y cells. Nature of the series: In vitro metabolism in human brain cells (SH-SY5Y). It counts as in vitro ADME. To be noted: IMM-H004 1–100 μmol/L. The procedure: SH-SY5Y, HEB, and hCMEC/D3 cells were utilized to investigate the in vitro metabolism of IMM-H004 and IMM-H004G in the brain. SH-SY5Y and HEB cells were cultured routinely in Dulbecco’s modified Eagle’s medium (DMEM) containing 10% fetal bovine serum and a 100 U/mL penicillin–100 μg/mL streptomycin solution. hCMEC/D3 cells were seeded on collagen type I coated 24-well plates and cultured in EndoGRO™-MV complete medium following the manufacturer’s guidelines. The cells were incubated at 37 °C, with 5% CO2, and were maintained in a humidified environment. Once the confluence reached 70–80%, the cells were digested using a 0.25% trypsin–EDTA solution, centrifuged at 200× g for 5 min, and then resuspended in a fresh culture medium. For each experiment, after seeding and 24 h incubation, the cells were washed twice with a prewarmed culture medium, and then IMM-H004 or IMM-H004G (1–100 μmol/L) dissolved in the culture medium was added. Incubation was carried out at 37 °C for 5 h or 24 h. After incubation, the supernatants were collected. Subsequently, the cells were washed with cold HBSS three times and lysed in a RIPA lysis buffer (Beyotime Inc., Shanghai, China). The concentrations of IMM-H004 and IMM-H004G were determined by liquid chromatography with tandem mass spectrometry (LC-MS/MS).

As to `COc1cc(OC2OC(C(=O)O)C(O)C(O)C2O)cc2oc(=O)c(N3CCN(C)CC3)c(C)c12` (stereo not shown) [IMM-H004G], the “detection in brain regions” value in series [1] was “only detected at lower concentrations in the hypothalamus”. In addition, the Kp in series [1] (hypothalamus and plasma, icv or intrathecal, 3.8 ug/kg, after icv injection of IMM-H004 3.8 μg/kg, read-out: hypothalamus-to-plasma AUC ratio) stood at 3.13. For the same compound, the Km at 10 min in series [2] is 10.7 µM. Also, in the series with hCMEC/D3 cells, the “reduction of uptake at 4 °C compared to 37 °C” value is reported as 70.6%; the “Kns, passive diffusion rate” value is listed as 0.100 μL/min/mg protein; the “Vmax/Km ratio, transporter-mediated uptake” value was found to be 1.50 μL/min/mg protein. Also, in series [3], the “reduction of uptake by quinidine” value was “not affected” and the “reduction of uptake by verapamil” value was “not affected”. The “effect of inhibitors of OAT, OCT, OCTN, BCRP, and MRP on uptake” value in series [4] is listed as “No significant impact”.
As to `COc1cc(O)cc2oc(=O)c(N3CCN(C)CC3)c(C)c12` [IMM-H004], the “production of IMM-H004G from IMM-H004” value in the series with SH-SY5Y cells is reported as “not detected”. The “detection in brain regions” value in series [1] was “detected in all brain regions”. The Km at 10 min in series [2] was 89.5 µM. Besides, in the series on hCMEC/D3 cells, the “Kns relative to that of IMM-H004G” value turned out to be 8.77 times; the “reduction of uptake at 4 °C compared to 37 °C” value came to 57.1%; the “Kns, passive diffusion rate” value came to 0.877 μL/min/mg protein; the “Vmax/Km ratio, transporter-mediated uptake” value turned out to be 18.8 μL/min/mg protein. Moreover, in series [3], the “reduction of uptake by quinidine” value was 57.7% and the “reduction of uptake by verapamil” value came to 61.5%. The “effect of inhibitors of OAT, OCT, OCTN, BCRP, and MRP on uptake” value in series [4] is recorded as “No significant impact”.
